# Experimental data as given in article doi:10.1101/2025.03.13.643086, “Granzyme-targeting quenched activity-based probes for assessing tumor response to immunotherapy” (bioRxiv, 2025).
# Columns and labels:
# [1] = Hydrolytic stability of qABPs in media (Cy5 fluorescence over time); type: physicochemical; conditions: cell culture media (10% FBS), 24 h incubation
# Description: Supplementary Figure 1. E-2B-0B-2Quenching effect and stability of qABP 10. (A) The fluorescence for each probe (10 µM) was measured at Ex/Em: 640/670 nm. (B) The stability of qABP 10 in PBS and different cell culture media (supplemented with 10% FBS) was measured by monitoring the production of Cy5 fluorescence signal over time.
# 11 CO2- In-gel fluorescence: Cy5
# Supplementary Figure 2. (A) Chemical structure of compound 11. (B) hGzmB labeling assay with 11. Recombinant human active GzmB (50 nM) was incubated with 8 or 11 (500 nM) for 1 h.
# Protein samples were analyzed by SDS-PAGE and in-gel fluorescence scanning for Cy5 signal.
# (1 picture or pasted object on this page, not shown here)
# PBS RIPA Myelocult 17 In-gel fluorescence:
# Supplementary Figure 8. Activity-based GzmA profiling. (A) Left: Dose-dependent labeling of GzmA with 16 and 17 in NK-92 cell lysates. Middle, Right: GzmA selective labeling in different cell lysates with 17 (Middle) and 16 (Right) (50 nM, 1 h, 37 °C). Briefly, cell lysates were prepared with RIPA lysis buffer, and 20 µg of proteins were incubated with 50 nM of 16 or 17 for 1 h at 37 °C and analyzed by SDS-PAGE. […]
# dependent in situ labeling of GzmA in NK-92 cells with 14-17 (2 h, 37 °C). […] After denaturing with 4X SDS-reducing buffer, 20 µg of proteins were analyzed by SDS-PAGE and in-gel fluorescence scanning for Cy5 signal. […]
# [2] = test system: GzmB activity in 4T1 tumors; type: in vivo, mouse
# Description: Figure 5. In vivo imaging of GzmB activity in mouse tumor models. (A) Schematic illustration of the timeline of immunotherapy and real-time NIRF-imaging. (B) Measurement of tumor growth comparing immunotherapy (ICB combination)-treated vs. untreated mice. Data points are shown as mean with SD. (C) Whole animal 2D fluorescence images of immunotherapy-treated mice obtained after 2, 4, 8 and 24 h post-injection at Ex/Em: 640/680 nm. […] (D) Quantification of in vivo NIRF signals in the tumors. […] (F) Quantification of ex vivo NIRF signals in the organs (normalized to spleen). […] (G) Immunoblotting analysis of GzmB expression in tumor homogenates. Briefly, pieces of tumors were transferred to a flask containing 1 mL RIPA lysis buffer on ice and constantly grinded for 2 min. Homogenates were collected by centrifugation and 20 μg of proteins were analyzed by SDS-PAGE and immunoblotting. (H) Representative confocal microscopy images of tumor sections stained with DAPI (blue) and CD8α (green)/GzmB (yellow) antibodies and Cy5 (red) detection. (I) Fraction (%) of CD8+ cells in the tumors analyzed by flow cytometry. (J) Mean fluorescence intensity (MFI) of Cy5 signals determined by flow cytometry after dissociated tumors were treated with 10 (5 μM) for 2 h at 37 °C.
# 3-5 mice/group. For all studies, mice were monitored by daily observation and serial tumor measurements and body weights.
# Mice were treated with 20 mg/kg BEC i.v., 10 mg/kg anti-PD1 i.p., 5 mg/kg anti-CTLA4 i.p. or a combination of 10 mg/kg anti-PD-1 and 5 mg/kg anti-CTLA4. All the treatments were administered into living mice bearing 4T1 tumor every three days for three times (q3dx3). Dosing was administered at 0.01 ml/g body weight. On day 9 post-treatment, the mice were injected with 2 nmol/g GzmB qABP i.v., followed by fluorescence imaging at 2, 4, 8, and 24 h. Following the last imaging time point, mice were euthanized, and tissues were collected for ex vivo imaging.
# E. In vivo and ex vivo fluorescence imaging (FLI)
# All fluorescence imaging (FLI) were performed using Xenogen IVIS Spectrum (Revvity Health Sciences, Inc., Hopkinton, Massachusetts), which was previously owned by PerkinElmer. Prior to in vivo or ex vivo FLI, quality control of the IVIS system was performed with XFM-2X fluorescent phantom mouse (Revvity Health Sciences, Inc., Hopkinton, Massachusetts). The total radiant efficiency of AF680 phantom was 1.44 x 109 ± 5.7 x 107 at 40% threshold for the entire study.
# Both in vivo and ex vivo FLI of mice including dye phantom was performed with Ex/Em: 640/680 nm. The wavelength difference between excitation and emission was large enough to prevent signal contamination by mixing. The maximum exposure time was fixed at 120 seconds to avoid background noise. In vivo imaging used 8 binning, 2 f-stop, and 1.5 cm sample height, whereas ex vivo imaging used 8 binning, 2–4 f-stop, and 0.5 cm sample height. The quantified data are presented as radiant efficiency or normalized radiant efficiency by area. […]
# Fixed/Permeabilized […]
# cells were resuspended 100 µL 1x intracellular staining perm wash buffer and incubated with FITC-conjugated CD8 antibody (BioLegend #100706) at 0 °C for 1 h. After centrifugation, cell pellets were washed with 1x intracellular staining perm wash buffer (twice) and resuspended in the appropriate amount of cell staining buffer (BioLegend # 420201) and analyzed with flow […]
smiles,measurement,setting,value
"CC[C@H](C)[C@H](NC(=O)CCCCCN1/C(=C/C=C/C=C/C2=[N+](CC)c3ccc(S(=O)(=O)O)cc3C2(C)C)C(C)(C)c2cc(S(=O)(=O)O)ccc21)C(=O)N[C@@H](CCC(=O)O)C(=O)N1CCC[C@H]1C(=O)NC(CS(=O)(=O)O)P(=O)(Oc1ccc(CCNC(=O)C2CCN(S(=O)(=O)c3ccccc3-c3c4ccc(=[N+]5CCc6ccccc65)cc-4oc4cc(N5CCc6ccccc65)ccc34)CC2)cc1)c1ccccc1 (stereo partly drawn) [Compound 10, Cy5-IEPCya^PhP-QSY21]",hydrolyzed product,[1],less than 50%
same,"in vivo NIRF signal at 2 h, mouse #61 (brightest)","[2]; 12.5 nmol/100 μL i.v., 2 h post-injection, ICB combination-treated mouse",7.26x10^9 p s^−1 cm^−2 sr^−1
same,time post-injection of brightest NIRF signal within tumors,"[2]; 50 nmol i.v., imaged at 2, 4, 8 and 24 h",2 h
same,"tumor-to-background ratio (TBR), ex vivo, normalized to spleen, mouse #57","[2]; 50 nmol i.v., organs harvested 24 h post-injection",15.18
same,"in vivo fluorescence signal in tumor at 2 h, mouse #57 (highest)","[2]; 50 nmol/100 μL i.v., 2 h post-injection, ICB combination-treated mouse",4.02x10^10 p s^−1 cm^−2 sr^−1
same,clearance route of excess probe,[2]; second highest signals in bladder (2 h in vivo) and kidneys (24 h ex vivo),cleared through the renal pathway
